Experiment: Solubility in water
Type: physicochemical

## CC(C)(C)CC(C)(C)c1cc(Cc2cc(C(C)(C)CC(C)(C)C)cc(-n3nc4ccccc4n3)c2O)c(O)c(-n2nc3ccccc3n2)c1 [2,2′-methylene bis[6-(2H-benzotriazol-2-yl)-4-(1,1,3,3-tetramethylbutyl)phenol]]
  solubility in water: ng/L range

From patent publication US20250143990A1, “SKIN MICROBIOME FRIENDLY SUNSCREENS” (BASF SE, priority 2022, published 2025)
